Article PMC11758266, “Lipid-Modulated, Graduated Inhibition of N-Glycosylation Pathway Priming Suggests Wide Tolerance of ER Proteostasis to Stress” (ACS Central Science, 2024)

Experiments:
[1] = system: HEK293 cells; assay: HEK-CellCount readout (stained nuclei of live cells, internal cytotoxicity measure); format: cell-based, human
Procedure: Here, the nuclear localization of the transcription factor ATF4 (which leads to subsequent expression of CHOP and cell death) was used as a phenotypic marker of ER stress (Figure 3A). Use of multi(384)-well plate format allowed wild-type HEK cells to be treated with analogues over a titrating concentration range of 0.5 nM to […] for 6 h in a quantitative manner (Figure 3C). After fixation with paraformaldehyde, high-content cellular fluorescence microscopy imaging was used to both determine the site and quantify the location of ATF4[32] (Figure 3B,C). […] In this way, confocal fluorescence microscopy at excitation wavelengths of 405 and 488 nm produced, as a direct primary readout, the intensity of ATF4 located in the nucleus as well as the ratio of ATF4 located between the nucleus (colocalized with Hoechst) and cytoplasm (see Figure 3B,C for representative images and the Supporting Information for channel-by-channel images). Concurrent readout of the number of stained nuclei (Hoechst nuclei stain) in live cells was also used as an internal cytotoxicity measure. This high-content method allowed detailed quantitative cellular dose responses to be determined with precision (Figure 3D). […]
Figure 3 High-content phenotypic screen for putative ER stress inducers. […] Plates were imaged using an OPERA-Phenix high-content imaging platform with fluorescence excitation at 405 and 488 nm. […]

[2] = biological target: T1, DPAGT1 (Homo sapiens, UniProt Q9H3H5); assay: Heat-induced denaturation assay of DPAGT1 with bound ligand; format: binding
T1 sequence (Q9H3H5 1-408): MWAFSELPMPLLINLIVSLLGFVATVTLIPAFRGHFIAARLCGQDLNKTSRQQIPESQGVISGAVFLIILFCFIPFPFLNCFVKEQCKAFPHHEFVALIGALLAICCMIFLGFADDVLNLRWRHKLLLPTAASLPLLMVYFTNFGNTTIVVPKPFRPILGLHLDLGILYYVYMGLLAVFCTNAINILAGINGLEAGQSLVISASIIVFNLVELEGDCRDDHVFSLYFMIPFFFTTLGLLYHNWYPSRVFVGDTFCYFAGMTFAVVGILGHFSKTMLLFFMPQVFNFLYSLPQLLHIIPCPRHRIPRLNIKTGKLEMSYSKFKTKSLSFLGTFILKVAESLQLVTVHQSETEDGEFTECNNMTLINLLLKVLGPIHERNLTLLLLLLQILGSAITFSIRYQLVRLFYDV
Text: The structure of DPAGT1 in complex with the archetypal scaffold natural product tunicamycin[21] […] Trp122 moves so as to use its indole moiety to hydrophobically provide a binding “cap” or “lid” over the proximal portion of the 10′-N lipid chain.

## tunicamycin [reference compound]
[1]
  cell death (in words): causing cell death
[1]; 6 h, live cell nuclei count, read-out: EC50, cell death
  EC50: ~10 µM
[2]; heat-induced denaturation, DPAGT1 alone 51.7 ± 0.2 °C
  Tm,1/2 of DPAGT1 bound to ligand: 83.0 ± 0.4 °C
[2]; versus DPAGT1 alone
  ΔTm,1/2 of DPAGT1: 31.3 °C
